{"source": "patent US10443054B2", "about": "“Methods for identifying and treating invasive/metastatic breast cancers” (Massachusetts Institute of Technology, priority 2016, dated 2019)", "key": {"LM2 cells": {"test_system": "LM2 cells", "assay": "Extravasation (experimental lung) metastasis assay, tail vein injection", "type": "in vivo, mice", "conditions": "LM2 cells stably expressing shRNA injected via tail vein, 28 days; vs Ctrl-shRNA", "experimental": "For the experimental lung metastasis assay, 5×10^4 cells in 100 μl of Hank's Balanced Salt Solution were injected into the lateral tail vein of 6- to 8-week-old female NOD/SCID/IL2RV-null mice. The mice were sacrificed 28 days post-injection and lungs were inflated with 3.8% formaldehyde imaged with a fluorescence microscope and subsequently fixed overnight with 3.8% formaldehyde. ZsGreen-positive foci were counted in the left pulmonary lobe using ImageJ and counts were manually curated as needed."}, "MDA-MB-231 cells": {"test_system": "MDA-MB-231 cells", "assay": "Inverted invasion assay through matrigel towards EGF", "conditions": "nuclei of invading cells above 40 μm"}}}
{"molecule": "Lpd-shRNA2: shRNA targeting human Lpd, TTCCCATACTTTGCAATGCGG", "values": [{"measurement": "number of ZsGreen-positive metastatic foci in the left pulmonary lobe", "setting": "LM2 cells", "value": "not significant"}]}
{"molecule": "Cc1ccc(NC(=O)c2ccc(CN3CCN(C)CC3)cc2)cc1Nc1nccc(-c2cccnc2)n1", "note": "[ST1571, STI-571]", "values": [{"measurement": "breast cancer cell invasiveness towards EGF", "setting": "MDA-MB-231 cells; MDA-MB-231, Dasatinib 10 nM, STI571 10 μM, 72 hours vs DMSO", "value": "impaired"}]}
{"molecule": "CNC(=O)[C@H](Cc1c[nH]c2ccccc12)NC(=O)[C@@H](CC(=O)NO)CC(C)C", "note": "[MMP inhibitor, GM6001]", "values": [{"measurement": "invasion of Lpd overexpressing cells", "setting": "MDA-MB-231 cells; MDA-MB-231 expressing GFP-Lpd, 10 μM GM6001 vs DMSO", "value": "reduced invasion"}, {"measurement": "invasion of GFP expressing control cells", "setting": "MDA-MB-231 cells; MDA-MB-231 expressing GFP, 10 μM GM6001 vs DMSO", "value": "reduced invasion"}]}
